Test results taken from ChEMBL document CHEMBL5634134, “Design, synthesis, and biological evaluation of novel 4,4'-bipyridine derivatives acting as CDK9-Cyclin T1 protein-protein interaction inhibitors against triple-negative breast cancer” (Eur J Med Chem, 2023).
Active and inactive are the calls of the source. The calls are words filed in the database; no cut-off is given here.

Legend:
[1] = test system: MDA-MB-231; assay: Inhibition of colony formation in human MDA-MB-231 cells at 20 nM incubated for 10 days in presence of olaparib by crystal violet staining based analysis; type: functional, cell-based; conditions: time 10.0 day
[2] = biological target: Cyclin-dependent kinase 2 (Homo sapiens) (UniProt P24941); assay: Binding affinity to CDK2 in human MDA-MB-231 cells asssesed as thermal stabilization at 1 uM incubated for 8 hrs under 45 to 65 degreeC by Western blot analysis; type: cell-based
[3] = test system: MDA-MB-231; assay: Induction of apoptosis in human MDA-MB-231 cells transfected with shCDK9 assessed as increase in cleaved PARP expression at 300 nM by Western blot analysis; type: functional, cell-based
[4] = Toxicity in athymic BALB/c mouse implanted with mouse 4T1 cells assessed as kidney tissue damage at 12.5 to 25 mg/kg, ip administered for 14 days; type: organism-based; conditions: in vivo, 336 h, dose 12.5-25 mg/kg, time 14 day
[5] = test system: MDA-MB-231; assay: Induction of apoptosis in human MDA-MB-231 cells assessed as late apoptotic cells at 333 nM incubated for 72 hrs by Annexin V-FITC/PI staining based flow cytometry analysis (reference value: 4.04 %); type: functional
[6] = AUC (0 to infinity) in Sprague-Dawley rat at 50 mg/kg, ip measured afer 24 hrs by LC-MS/MS analysis; type: ADME, organism-based; conditions: in vivo
[7] = test system: MDA-MB-231; assay: Induction of apoptosis in human MDA-MB-231 cells assessed as necrotic cells at 333 nM incubated for 72 hrs by Annexin V-FITC/PI staining based flow cytometry analysis (reference value: 0.49 %); type: functional
[8] = biological target: Cyclin-dependent kinase 7 (Homo sapiens) (UniProt P50613); assay: Binding affinity to CDK7 in human MDA-MB-231 cells asssesed as thermal stabilization at 1 uM incubated for 8 hrs under 45 to 65 degreeC by Western blot analysis; type: cell-based
Sequence of Cyclin-dependent kinase 7 (Homo sapiens) (P50613 whole entry): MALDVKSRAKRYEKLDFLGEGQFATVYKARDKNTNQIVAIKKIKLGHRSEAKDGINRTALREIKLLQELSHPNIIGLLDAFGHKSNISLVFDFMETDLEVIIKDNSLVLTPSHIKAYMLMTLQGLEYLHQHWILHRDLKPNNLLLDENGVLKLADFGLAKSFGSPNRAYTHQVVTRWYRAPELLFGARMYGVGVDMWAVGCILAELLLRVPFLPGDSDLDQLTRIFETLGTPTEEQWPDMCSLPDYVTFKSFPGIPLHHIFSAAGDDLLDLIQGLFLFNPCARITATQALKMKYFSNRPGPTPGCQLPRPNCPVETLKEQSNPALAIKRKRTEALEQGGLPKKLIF

[9] = test system: 4T1; assay: Antitumor activity against mouse 4T1 cells implanted in athymic BALB/c mouse assessed as increase in cleaved PARP at 12.5 to 25 mg/kg, ip administered once daily for 14 days by Western blot analysis; type: functional, organism-based; conditions: dose 12.5-25 mg/kg, time 14.0 day
[10] = test system: MDA-MB-231; assay: Induction of apoptosis in human MDA-MB-231 cells assessed as early apoptotic cells at 333 nM incubated for 72 hrs by Annexin V-FITC/PI staining based flow cytometry analysis (reference value: 0.66 %); type: functional
[11] = Toxicity in athymic BALB/c mouse implanted with mouse 4T1 cells assessed as body weight loss at 25 mg/kg, ip administered for 14 days; type: organism-based; conditions: in vivo, 336 h, time 14 day
[12] = test system: MDA-MB-231; assay: Induction of apoptosis in human MDA-MB-231 cells assessed as viable cells at 37 nM incubated for 72 hrs by Annexin V-FITC/PI staining based flow cytometry analysis (reference value: 94.81 %); type: functional; conditions: read-out: Activity
[13] = test system: MDA-MB-231; assay: Induction of apoptosis in human MDA-MB-231 cells assessed as late apoptotic cells at 1000 nM incubated for 72 hrs by Annexin V-FITC/PI staining based flow cytometry analysis (reference value: 4.04 %); type: functional
[14] = Cytotoxicity against HK-2 cells assessed as inhibition of cell growth incubated for 72 hrs by MTT assay; type: toxicity, cell-based; conditions: human
[15] = Toxicity in mouse assessed as death rate at 750 mg/kg, ip administered for 16 days relative to control; type: organism-based; conditions: in vivo, time 16 day, read-out: Activity
[16] = test system: MDA-MB-231; assay: Induction of apoptosis in human MDA-MB-231 cells assessed as reduction in Bcl2 level incubated for 24 hrs by Western blot analysis; type: functional, cell-based; conditions: dose 37-1000 nM
[17] = Toxicity in athymic BALB/c mouse implanted with mouse 4T1 cells assessed as heart tissue damage at 12.5 to 25 mg/kg, ip administered for 14 days; type: organism-based; conditions: in vivo, 336 h, dose 12.5-25 mg/kg, time 14 day
[18] = test system: MDA-MB-231; assay: Induction of apoptosis in human MDA-MB-231 cells transfected with shCDK9 assessed as reduction in Bcl-2 expression at 300 nM by Western blot analysis; type: functional, cell-based
[19] = test system: MDA-MB-231; assay: Effect on Mcl-1 protein expression in human MDA-MB-231 cells transfected with shCDK9 at 300 nM by Western blot analysis; type: functional, cell-based
[20] = test system: 4T1; assay: Antitumor activity against mouse 4T1 cells implanted in athymic BALB/c mouse assessed as reduction in tumor volume at 12.5 to 25 mg/kg, ip administered for 14 days; type: functional, organism-based; conditions: dose 12.5-25 mg/kg, time 14.0 day
[21] = Toxicity in athymic BALB/c mouse implanted with mouse 4T1 cells assessed as liver tissue damage at 12.5 to 25 mg/kg, ip administered for 14 days; type: organism-based; conditions: in vivo, 336 h, dose 12.5-25 mg/kg, time 14 day
[22] = test system: MDA-MB-231; assay: Antiproliferative activity against human MDA-MB-231 cells assessed as decrease in sphere size by measuring diameter at 100 nM incubated for 10 days in presence of olaparib by confocal laser scanning microscopy; type: functional; conditions: time 10 day
[23] = test system: MDA-MB-231; assay: Antiproliferative activity against human MDA-MB-231 cells assessed as decrease in sphere size by measuring sphere diameter at 100 nM incubated for 10 days by confocal laser scanning microscopy (reference value: 508.27 micrometer); type: functional; conditions: time 10 day
[24] = test system: MDA-MB-231; assay: Synergistic antiproliferative activity against human MDA-MB-231 cells assessed as inhibition of cell growth incubated for 48 hrs in presence of varying concentrations of olaparib by MTT assay; type: functional, cell-based; conditions: dose 0.01-4 µM
[25] = Toxicity in athymic BALB/c mouse implanted with mouse 4T1 cells assessed as body weight loss at 12.5 mg/kg, ip administered for 14 days; type: organism-based; conditions: in vivo, 336 h, time 14 day
[26] = test system: MDA-MB-231; assay: Inhibition of colony formation in human MDA-MB-231 cells assessed as reduction in colony number incubated for 10 days by crystal violet staining based analysis; type: functional, cell-based; conditions: dose 12-1000 nM, time 10.0 day
[27] = Toxicity in athymic BALB/c mouse implanted with mouse 4T1 cells assessed as spleen tissue damage at 12.5 to 25 mg/kg, ip administered for 14 days; type: organism-based; conditions: in vivo, 336 h, dose 12.5-25 mg/kg, time 14 day
[28] = test system: MDA-MB-231; assay: Induction of apoptosis in human MDA-MB-231 cells assessed as viable cells at 111 nM incubated for 72 hrs by Annexin V-FITC/PI staining based flow cytometry analysis (reference value: 94.81 %); type: functional; conditions: read-out: Activity
[29] = Half life in Sprague-Dawley rat at 50 mg/kg, ip measured afer 24 hrs by LC-MS/MS analysis; type: ADME, organism-based; conditions: in vivo
[30] = test system: MDA-MB-231; assay: Induction of apoptosis in human MDA-MB-231 cells assessed as necrotic cells at 37 nM incubated for 72 hrs by Annexin V-FITC/PI staining based flow cytometry analysis (reference value: 0.49 %); type: functional
[31] = test system: MDA-MB-231; assay: Inhibition of colony formation in human MDA-MB-231 cells at 20 nM incubated for 10 days by crystal violet staining based analysis; type: functional, cell-based; conditions: time 10.0 day
[32] = Toxicity in athymic BALB/c mouse implanted with mouse 4T1 cells assessed as lung tissue damage at 12.5 to 25 mg/kg, ip administered for 14 days; type: organism-based; conditions: in vivo, 336 h, dose 12.5-25 mg/kg, time 14 day
[33] = Toxicity in mouse assessed as death rate at 1000 mg/kg, ip administered for 16 days relative to control; type: organism-based; conditions: in vivo, time 16 day, read-out: Activity
[34] = test system: MDA-MB-231; assay: Inhibition of cell invasion in human MDA-MB-231 cells at 1000 nM incubated for 24 hrs by crystal violet staining based transwell matrix penetration assay; type: functional
[35] = biological target: Cyclin-dependent kinase 1 (Homo sapiens) (UniProt P06493); assay: Binding affinity to CDK1 in human MDA-MB-231 cells asssesed as thermal stabilization at 1 uM incubated for 8 hrs under 45 to 65 degreeC by Western blot analysis; type: cell-based
Sequence of Cyclin-dependent kinase 1 (Homo sapiens) (P06493 whole entry, looked up): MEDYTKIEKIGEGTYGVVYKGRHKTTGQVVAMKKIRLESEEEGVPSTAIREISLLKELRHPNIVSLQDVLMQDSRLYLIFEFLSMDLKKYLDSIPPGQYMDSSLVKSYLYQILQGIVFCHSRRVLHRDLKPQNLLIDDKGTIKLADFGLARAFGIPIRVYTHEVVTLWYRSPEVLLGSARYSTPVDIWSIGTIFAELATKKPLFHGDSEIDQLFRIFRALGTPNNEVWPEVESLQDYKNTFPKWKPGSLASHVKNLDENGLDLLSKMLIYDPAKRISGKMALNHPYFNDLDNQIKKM

Compound: COc1ccc(C(=O)Nc2cc(-c3ccnc(N4CCC(O)CC4)c3)ccn2)cc1
- inhibition [1]: Active
- Activity [2]: inactive
- Activity [3]: inactive
- Activity [4]: Non-Toxic
- Activity [5]: 48.6%
- AUC(0-inf) [6]: 17 µg·h/mL
- Activity [7]: 0.25%
- Activity [8]: inactive
- Activity [9]: Active
- Activity [10]: 20.4%
- Activity [11]: Toxic
- viability at 0.037 µM [12]: 83.6%
- Activity [13]: 71.6%
- IC50 at 72 h [14]: 0.481 µM
- mortality at 384 h [15]: 40%
- Activity [16]: Dose-Dependent Effect
- Activity [17]: Non-Toxic
- Activity [18]: inactive
- Activity [19]: inactive
- Activity [20]: Active
- Activity [21]: Non-Toxic
- Activity [22]: 310.56 um
- Activity [23]: 429.81 um
- Activity [24]: Dose-Dependent Effect
- Activity [25]: Non-Toxic
- inhibition [26]: Dose-Dependent Effect
- Activity [27]: Non-Toxic
- viability at 0.111 µM [28]: 43.6%
- half-life [29]: 1.67 h
- Activity [30]: 0.17%
- inhibition [31]: inactive
- Activity [32]: Non-Toxic
- mortality at 384 h [33]: 100%
- inhibition [34]: Active
- Activity [35]: inactive
